Values belong to the molecule of their own block, whether it stands above or below them.
Experiments:
BACE-1 enzyme = molecular target: T1, BACE-1 enzyme (Homo sapiens, UniProt P56817); assay: BACE Fluorescence Resonance Energy Transfer (FRET) Assay; type: biochemical; conditions: peptide substrate, pH 4-4.5, 30 min pre-incubation, 1.5 hours at room temperature
T1 construct: purchased R & D Systems 931AS
Description: BACE Fluorescence Resonance Energy Transfer (FRET) Assay
In the following assay, the proteolytic activity of BACE is measured by observing cleavage of a fluorescent group from a peptide substrate containing a rhodamine fluorescent donor and a quenching acceptor.
The inhibitory activity of compounds of Formula (I) may be compared to a statine derived control inhibitor STA200 (MP Biomedical Cat. #STA-200). The cleavage reaction occurs when a BACE-1 substrate (Invitrogen, Cat. #P2986) was added to a reaction mixture containing BACE-1 enzyme (R & D Systems, Cat. #931AS) and allowed to proceed for 1.5 hours. Fluorescence, used as a marker of BACE activity, is monitored using 540 nm excitation and 585 nm emission wavelengths (Envision, Perkin Elmer).
A typical assay reaction contains BACE-1 enzyme—in assay buffer (50 mM sodium acetate, pH 4-4.5, 0.01% CHAPS (3-[(3-Cholamidopropyl)dimethylammonio]-1-propanesulfonate), 0.0125% TritonX-100, 0.006% EDTA) which is pre-incubated for 30 minutes with test compound in 7.5% DMSO. The reaction is initiated with the addition of BACE-1 substrate in assay buffer and allowed to proceed for 1.5 hours at room temperature. Assays are conducted in black 384-well microtiter plates and scanned at room temperature using 540 nm excitation and 585 nm emission wavelengths.
A test compound's activity is reported as the IC50.

[1] = tested on: HEK293 cells stably expressing wildtype human APP695 protein (HEK-APPwt cells); assay: Aβ Cell Based Assay (Aβ1-40 secretion, ELISA); conditions: reduction of Aβ1-40 secretion from HEK-APPwt cells, 6 hours incubation, DAPT as 100% inhibition reference
Description: Aβ Cell Based Assay Procedure
In the following assay, the proteolytic activity of BACE in cells exposed to varying concentrations of a compound of interest is measured by observing the amount of Aβ1-40 secreted from HEK293 cells (Human Embryonic Kidney epithelial cell line) stably expressing wildtype human APP695 protein (HEK-APPwt cells).
HEK-APPwt cells were grown in high glucose DMEM (Dulbecco's Modified Eagles Medium SIGMA Cat. #D5796) supplemented with 25 mM HEPES (4-(2-hydroxyethyl)-1-piperazineethanesulfonic acid) (pH 7.4) (Invitrogen Cat. #15630-114), 0.1 mM NEAA (Non-essential Amino Acids) (BioWhittaker Cat. #13-114E), 10% fetal bovine serum (SIGMA Cat. #F4135) and 250 μg/mL hygromycin (Invitrogen Cat. #10687-010) in T-225 flasks at 37° C. with 5% CO2 and humidity control.
Test compounds were initially prepared in DMSO and diluted with DMEM media containing 2% FBS (Fetal bovine serum). Ten standard compound solutions were prepared having a range of concentrations. The standard compound solutions were used to determine the EC50 of the test compound. The range of concentrations chosen may depend on the compound's predicted potency.
To prepare the cells for the assay, a flask containing HEK-APPwt cells were trypsinized briefly (1 mL trypsin), and once the cells detached, 4 mL of 10% FBS-DMEM was added to the flask. The detached cells were centrifuged at 900 rpm for 5 min to form a pellet.
The HEK-APPwt cell pellet was re-suspended with 10 mL DMEM media containing 2% FBS. 80 μL of the cell suspension was added to each well of a 96-well cell culture plate to give 100×10^4 cells/mL. 10 μL of a standard compound solution was added to each well of the 96-well cell culture plate followed by 10 μL of Alamar blue solution. The cells were incubated at 37° C. in a 5% CO2 incubator for 6 hours.
At the end of the incubation, the plates were removed from incubator, and the supernatant was collected. Aβ1-40 concentration in the medium was measured by using a commercial Aβ1-X ELISA kit (IBL, Japan Cat. #27729). Briefly, the ELISA plates were coated with an anti-human Aβ (N)(82E1) mouse IgG monoclonal antibody. A horseradish peroxidase conjugated anti-human Aβ11-28 mouse IgG monoclonal antibody was used for detection. The cell culture supernatant was diluted with EIA buffer+protease inhibitors (kit buffer containing protease inhibitors (1 mL PI/30 mL buffer)). A 100 μL aliquot of the diluted supernatant was added to each well of the ELISA plate and incubated for 6 hrs at 4° C. The ELISA plate was washed 8 times with phosphate buffered saline (PBS) containing 0.05% Tween 20.
A 100 μL of detection antibody was then added and incubated for 1 hour at 4° C. The plate was washed 8 times with PBS buffer containing 0.05% Tween 20 followed by addition of 100 μL of the chromogen tetramethylbenzidine (TMB). The plate was incubated in the dark at room temperature for about 30 min and a stop solution (1N H2SO4) was added.
The intensity of the color developed was measured at 450 nm. The optical density at 450 nm (OD450) is proportional to the concentration of human Aβ1-40 secreted by the cell. As a reference, N—[N-(3,5-difluorophenacetyl-L-alanyl)]-S-phenylglycine t-butyl ester (DAPT, a γ-secretase inhibitor) was used to indicate 100% inhibition of BACE activity. Thus, the assay measures the ability of a compound of interest to reduce Aβ1-40 secretion. Compound potency was reported as the EC50 by calculating the percent inhibition at all concentration levels and the data were fit with non-linear curve fitting algorithm using in GraphPad Prism.

T1 sequence (P56817 46-457 limits assumed): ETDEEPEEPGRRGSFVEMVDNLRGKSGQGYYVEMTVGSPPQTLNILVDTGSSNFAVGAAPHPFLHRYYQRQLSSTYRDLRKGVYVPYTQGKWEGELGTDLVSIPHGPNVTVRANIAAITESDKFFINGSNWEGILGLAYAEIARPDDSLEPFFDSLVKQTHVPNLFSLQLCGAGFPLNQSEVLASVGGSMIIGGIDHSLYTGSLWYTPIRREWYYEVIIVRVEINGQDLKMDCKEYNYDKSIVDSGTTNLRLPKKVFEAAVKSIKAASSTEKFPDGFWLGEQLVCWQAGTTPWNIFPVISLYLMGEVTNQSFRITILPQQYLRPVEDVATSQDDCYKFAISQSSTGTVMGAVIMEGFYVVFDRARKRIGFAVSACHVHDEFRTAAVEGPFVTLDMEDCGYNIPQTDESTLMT

SMILES: O=C(Nc1nc2cc(OCc3ccccc3)ccc2[nH]1)c1cc2ccccc2cn1 [Example 1, Isoquinoline-3-carboxylic acid (5-benzyloxy-1H-benzoimidazol-2-yl)-amide]
- IC50 (BACE-1 enzyme): 0.085 µM
- EC50 [1]: 0.12 µM

SMILES: O=C(Nc1nc2cc(OCCc3ccccc3)ccc2[nH]1)c1cc2ccccc2cn1 [Example 2, Isoquinoline-3-carboxylic acid (5-phenethyloxy-1H-benzoimidazol-2-yl)-amide]
- IC50 (BACE-1 enzyme): 0.19 µM
- EC50 [1]: 2 µM

SMILES: O=C(Nc1nc2cc(OCc3ccc(C(F)(F)F)cc3)ccc2[nH]1)c1cc2ccccc2cn1 [Example 3, Isoquinoline-3-carboxylic acid [5-(4-trifluoromethyl-benzyloxy)-1H-benzoimidazol-2-yl]-amide]
- IC50 (BACE-1 enzyme): 0.95 µM
- EC50 [1]: 0.55 µM

SMILES: O=C(Nc1nc2cc(OCc3ccc(F)cc3)ccc2[nH]1)c1cc2ccccc2cn1 [Example 4, Isoquinoline-3-carboxylic acid [5-(4-fluoro-benzyloxy)-1H-benzoimidazol-2-yl]-amide]
- IC50 (BACE-1 enzyme): 0.1 µM
- EC50 [1]: 0.16 µM

SMILES: O=C(Nc1nc2cc(OCCC3CCCC3)ccc2[nH]1)c1cc2ccccc2cn1 [Example 6, Isoquinoline-3-carboxylic acid [5-(2-cyclopentyl-ethoxy)-1H-benzoimidazol-2-yl]-amide]
- IC50 (BACE-1 enzyme): 0.26 µM
- EC50 [1]: 0.16 µM

SMILES: O=C(Nc1nc2cc(OCCCc3ccccc3)ccc2[nH]1)c1cc2ccccc2cn1 [Example 8, Isoquinoline-3-carboxylic acid [5-(3-phenyl-propoxy)-1H-benzoimidazol-2-yl]-amide]
- IC50 (BACE-1 enzyme): 0.47 µM
- EC50 [1]: 1.2 µM

SMILES: COc1cccc(-c2ccc3[nH]c(NC(=O)c4cc5ccccc5cn4)nc3c2)c1 [Example 10, Isoquinoline-3-carboxylic acid [5-(3-methoxy-phenyl)-1H-benzoimidazol-2-yl]-amide]
- IC50 (BACE-1 enzyme): 0.16 µM
- EC50 [1]: 1 µM

SMILES: O=C(Nc1nc2cc(NCc3ccccc3)ccc2[nH]1)c1cc2ccccc2cn1 [Example 11, Isoquinoline-3-carboxylic acid (5-benzylamino-1H-benzoimidazol-2-yl)-amide]
- IC50 (BACE-1 enzyme): 0.13 µM
- EC50 [1]: 0.6 µM

Second part, led by results:

- IC50 (BACE-1 enzyme): 0.86 µM
SMILES: O=C(Nc1nc2cc(OCc3ccc(F)cc3F)ccc2[nH]1)c1cc2ccccc2cn1 [Example 5, Isoquinoline-3-carboxylic acid [5-(2,4-difluoro-benzyloxy)-1H-benzoimidazol-2-yl]-amide]
- EC50 [1]: 1.2 µM

- IC50 (BACE-1 enzyme): 0.1 µM
SMILES: O=C(Nc1nc2cc(N3CCC(c4ccccc4)CC3)ccc2[nH]1)c1cc2ccccc2cn1 [Example 7, Isoquinoline-3-carboxylic acid [5-(4-phenyl-piperidin-1-yl)-1H-benzoimidazol-2-yl]-amide]
- EC50 [1]: 1.4 µM

- IC50 (BACE-1 enzyme): 0.19 µM
SMILES: O=C(Nc1nc2cc(-c3ccccc3)ccc2[nH]1)c1cc2ccccc2cn1 [Example 9, Isoquinoline-3-carboxylic acid (5-phenyl-1H-benzoimidazol-2-yl)-amide]
- EC50 [1]: 1.09 µM

- IC50 (BACE-1 enzyme): 0.38 µM
SMILES: O=C(Nc1nc2cc(N(Cc3ccccc3)Cc3ccccc3)ccc2[nH]1)c1cc2ccccc2cn1 [Example 12, Isoquinoline-3-carboxylic acid (5-dibenzylamino-1H-benzoimidazol-2-yl)-amide]
- EC50 [1]: 2.3 µM

Reference: patent publication US8350039B2, “Substituted isoquinoline derivatives, pharmaceutical compositions, and methods of use as beta-secretase inhibitors” (High Point Pharmaceuticals, LLC, priority 2009, dated 2013)
